Data: article PMC2212407 (The Journal of Experimental Medicine, 1998)
Where two headings read alike, the source gives them in different places.

Key:
Assay type in all cases: cell-based, human
[1] = test system: T cell line 024; assay: Proliferation of CD4+ T cell line 024; conditions: T cell line 024 initiated on day 71, autologous APCs
[2] = test system: fresh PBMCs from patient 024
[3] = test system: fresh PBMCs from asymptomatic HIV-1+ patients
[4] = test system: fresh PBMCs from patient 744; assay: Proliferation assay of fresh PBMCs from patient 744

Substance | Stimulation of T cell line 024, result in words [1] | Proliferative response (SI) [2] | Mean proliferation (SI) ([3]; Total, 43 patients) | Mean proliferation (SI) ([3]; patients responding to PHA and tetanus toxoid only (n = 12)) | Mean proliferation (SI) ([3]; patients responding to PHA, tetanus toxoid, and HIV antigens (n = 12)) | Proliferation of fresh PBMCs from patient 744, result in words [4]
LRPGGKKQYRLKHIV [p17-3/2] | failed to stimulate |  |  |  |  | 
LRPRGKKRYKLKHIV [p17-3/1] | failed to stimulate | 1 |  |  |  | 
Tetanus toxoid: the recall antigen tetanus toxoid |  |  | 21 ± 65 | 45 ± 117 | 31 ± 32 | showed a response
